Data from the supplement of paper PMC10307832.

Tests used:
Experiment in all cases: relative viability (nuclei count vs DMSO), 5 days (fraction); higher = more cells survive
NCI-H23 = system: NCI-H23
In short: (§1)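 After 5 days of treatment, lung cancer cells in 1536-well plates were fixed and stained in a single step (final 0.05% Triton X-100, 1% formaldehyde, 1 ug/ml Hoechst) and their nuclei counted on 4× images. Treatment had been applied by pin tool the day after seeding as one drug alone or as a fixed anchor-drug dose with five library-drug doses (not always all listed) in √10 steps. Relative viability is the nuclei count of treated wells divided by that of vehicle wells, and values are medians of duplicate plates.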

NCI-H1944 = system: NCI-H1944
In short: as §1

EKVX = system: EKVX
In short: as §1

SK-LU-1 = system: SK-LU-1
In short: as §1

EMC-BAC-2 = system: EMC-BAC-2
In short: as §1

LCLC-97TM1 = system: LCLC-97TM1
In short: as §1

HARA = system: HARA
In short: as §1

NCI-H2126 = system: NCI-H2126
In short: as §1

H3255 = system: H3255
In short: as §1

NCI-H322M = system: NCI-H322M
In short: as §1

NCI-H1437 = system: NCI-H1437
In short: as §1

HCC-827 = system: HCC-827
In short: as §1

NCI-H460 = system: NCI-H460
In short: as §1

HCC-15 = system: HCC-15
In short: as §1

NCI-H441 = system: NCI-H441
In short: as §1

LC-2-ad = system: LC-2-ad
In short: as §1

SW 900 = system: SW 900
In short: as §1

ChaGo-K-1 = system: ChaGo-K-1
In short: as §1

PC-3 [JPC-3] = system: PC-3 [JPC-3]
In short: as §1

NCI-H1915 = system: NCI-H1915
In short: as §1

NCI-H661 = system: NCI-H661
In short: as §1

NCI-H522 = system: NCI-H522
In short: as §1

LU99A = system: LU99A
In short: as §1

NCI-H1793 = system: NCI-H1793
In short: as §1

## CCCCCCCCCCCC1=C(O)C(=O)C=C(O)C1=O [Embelin] + O=C(CCCCCCC(=O)Nc1ccccc1)NO [Vorinostat] (partner 1 µM)
NCI-H23; first compound 0.08 µM
  relative viability: 0.58
NCI-H23; first compound 0.8 µM
  relative viability: 0.604
NCI-H23; first compound 2.53 µM
  relative viability: 0.584
NCI-H23; first compound 8 µM
  relative viability: 0.433
NCI-H1944; first compound 0.08 µM
  relative viability: 0.577
NCI-H1944; first compound 0.8 µM
  relative viability: 0.643
NCI-H1944; first compound 2.53 µM
  relative viability: 0.656
NCI-H1944; first compound 8 µM
  relative viability: 0.589
EKVX; first compound 0.08 µM
  relative viability: 0.744
EKVX; first compound 0.8 µM
  relative viability: 0.962
EKVX; first compound 2.53 µM
  relative viability: 0.832
EKVX; first compound 8 µM
  relative viability: 0.754
SK-LU-1; first compound 0.08 µM
  relative viability: 0.892
SK-LU-1; first compound 0.8 µM
  relative viability: 0.954
SK-LU-1; first compound 2.53 µM
  relative viability: 0.75
SK-LU-1; first compound 8 µM
  relative viability: 0.518
EMC-BAC-2; first compound 0.08 µM
  relative viability: 0.344
EMC-BAC-2; first compound 0.8 µM
  relative viability: 0.561
EMC-BAC-2; first compound 2.53 µM
  relative viability: 0.257
EMC-BAC-2; first compound 8 µM
  relative viability: 0.269
LCLC-97TM1; first compound 0.08 µM
  relative viability: 0.789
LCLC-97TM1; first compound 0.8 µM
  relative viability: 1.16
LCLC-97TM1; first compound 2.53 µM
  relative viability: 0.652
LCLC-97TM1; first compound 8 µM
  relative viability: 0.496
HARA; first compound 0.08 µM
  relative viability: 0.559
HARA; first compound 0.8 µM
  relative viability: 0.603
HARA; first compound 2.53 µM
  relative viability: 0.545
HARA; first compound 8 µM
  relative viability: 0.582
NCI-H2126; first compound 0.08 µM
  relative viability: 0.803
NCI-H2126; first compound 0.8 µM
  relative viability: 0.763
NCI-H2126; first compound 2.53 µM
  relative viability: 0.796
NCI-H2126; first compound 8 µM
  relative viability: 0.6
H3255; first compound 0.08 µM
  relative viability: 0.873
H3255; first compound 0.8 µM
  relative viability: 0.834
H3255; first compound 2.53 µM
  relative viability: 0.711
H3255; first compound 8 µM
  relative viability: 0.948
NCI-H322M; first compound 0.08 µM
  relative viability: 0.873
NCI-H322M; first compound 0.8 µM
  relative viability: 0.954
NCI-H322M; first compound 2.53 µM
  relative viability: 1.01
NCI-H322M; first compound 8 µM
  relative viability: 0.801
NCI-H1437; first compound 0.08 µM
  relative viability: 0.83
NCI-H1437; first compound 0.8 µM
  relative viability: 0.943
NCI-H1437; first compound 2.53 µM
  relative viability: 0.853
NCI-H1437; first compound 8 µM
  relative viability: 0.392
HCC-827; first compound 0.08 µM
  relative viability: 0.806
HCC-827; first compound 0.8 µM
  relative viability: 0.915
HCC-827; first compound 2.53 µM
  relative viability: 0.966
HCC-827; first compound 8 µM
  relative viability: 0.917
NCI-H460; first compound 0.08 µM
  relative viability: 0.687
NCI-H460; first compound 0.8 µM
  relative viability: 0.948
NCI-H460; first compound 2.53 µM
  relative viability: 0.933
NCI-H460; first compound 8 µM
  relative viability: 0.397
HCC-15; first compound 0.08 µM
  relative viability: 0.906
HCC-15; first compound 0.8 µM
  relative viability: 0.965
HCC-15; first compound 2.53 µM
  relative viability: 0.908
HCC-15; first compound 8 µM
  relative viability: 0.841
NCI-H441; first compound 0.08 µM
  relative viability: 0.691
NCI-H441; first compound 0.8 µM
  relative viability: 0.905
NCI-H441; first compound 2.53 µM
  relative viability: 0.841
NCI-H441; first compound 8 µM
  relative viability: 0.657
LC-2-ad; first compound 0.08 µM
  relative viability: 0.759
LC-2-ad; first compound 0.8 µM
  relative viability: 0.695
LC-2-ad; first compound 2.53 µM
  relative viability: 0.716
LC-2-ad; first compound 8 µM
  relative viability: 0.774
SW 900; first compound 0.08 µM
  relative viability: 0.604
SW 900; first compound 0.8 µM
  relative viability: 0.718
SW 900; first compound 2.53 µM
  relative viability: 0.538
SW 900; first compound 8 µM
  relative viability: 0.315
ChaGo-K-1; first compound 0.08 µM
  relative viability: 0.739
ChaGo-K-1; first compound 0.8 µM
  relative viability: 0.782
ChaGo-K-1; first compound 2.53 µM
  relative viability: 0.871
ChaGo-K-1; first compound 8 µM
  relative viability: 0.755
PC-3 [JPC-3]; first compound 0.08 µM
  relative viability: 0.614
PC-3 [JPC-3]; first compound 0.8 µM
  relative viability: 0.95
PC-3 [JPC-3]; first compound 2.53 µM
  relative viability: 0.68
PC-3 [JPC-3]; first compound 8 µM
  relative viability: 0.604
NCI-H1915; first compound 0.08 µM
  relative viability: 0.563
NCI-H1915; first compound 0.8 µM
  relative viability: 0.544
NCI-H1915; first compound 2.53 µM
  relative viability: 0.521
NCI-H1915; first compound 8 µM
  relative viability: 0.473
NCI-H661; first compound 0.08 µM
  relative viability: 0.787
NCI-H661; first compound 0.8 µM
  relative viability: 0.826
NCI-H661; first compound 2.53 µM
  relative viability: 0.788
NCI-H661; first compound 8 µM
  relative viability: 0.745
NCI-H522; first compound 0.08 µM
  relative viability: 0.876
NCI-H522; first compound 0.8 µM
  relative viability: 0.906
NCI-H522; first compound 2.53 µM
  relative viability: 0.763
NCI-H522; first compound 8 µM
  relative viability: 0.856
LU99A; first compound 0.08 µM
  relative viability: 0.56
LU99A; first compound 0.8 µM
  relative viability: 0.461
LU99A; first compound 2.53 µM
  relative viability: 0.586
LU99A; first compound 8 µM
  relative viability: 0.336
NCI-H1793; first compound 0.08 µM
  relative viability: 0.728
NCI-H1793; first compound 0.8 µM
  relative viability: 0.842
NCI-H1793; first compound 2.53 µM
  relative viability: 0.754
NCI-H1793; first compound 8 µM
  relative viability: 0.439
